# In patent US20220030913A1, “SUPPLEMENT FOR LIVESTOCK” (Hoxie Feedyard, LLC, priority 2020, published 2022):
# Columns and labels:
# Eimeria spp. = test: 60 Day feeding study, qualitative fecal flotation for Eimeria; format: in vivo; settings: fecal samples at 50 d of feed, samples positive for at least 1+ Eimeria
# Text: At 60 days of feed, 2-200 head pens were systematically allocated to 4 pens of 100 head. Two pens of 200 head were sorted at the chute into 4-100 head pens at time of terminal implant. Each 200 head pen contributed 50 head to each of the 4 pens that would be eventually allocated to treatment. This was accomplished by systematic allocation of 5 head at a time to each of the trial pens. If 200 head counts were not exactly 100 head/pen, the final allocations were that the number of animals per treatment group were similar. […]
# Freshly voided fecal samples (n=10 per pen) were collected at 50 d of feed for fecal flotation to determine the presence of Eimeria spss. […] Qualitative fecal flotation measurements were measured on a scale of 1+ to 5+ with 1+ having <10 oocysts per slide, 3+ samples having 50-100 oocysts per slide, and 5+ having >500 oocysts/slide. This technique is considered semi-quantitative, with 3+ samples equivalent to approximately 50 oocysts/gram. […]
# Continuous variables were analyzed using PROC Glimmix (SAS 9.4, SAS Inst. Inc., Cary, N.C.). […] Statistical significance was determined at P<0.05 with tendencies at 0.06>P<0.10. […]
# [1] = 60 Day feeding study, cattle performance; format: in vivo, cattle (crossbred steers)
# Text: (§1) Feeding trials were completed with a randomized block design utilizing 4 treatments and 13 replicates per treatment. The first 20 pens (block 1, 5 replicates per treatment group) were placed first, the second 20 pens (block 2, 5 replicates per treatment group) were placed […], and the last 12 pens (block 3, 3 replicates per treatment group) were placed last. All cattle were housed within one area of the feedyard.
# (§2) Crossbred steers (n=4,849) with an average weight of 590 kg+/−19.7 kg of various origins from the High Plains and Midwest were selected from within a northwest Kansas commercial feedyard. All cattle underwent the same receiving protocol and were placed in 200 head pens. All cattle were acclimated to feedlot rations and had been on feed a minimum of 60 days prior to trial enrollment. Starting rations during the initial 60 days included 75 mg/head/day tylosin (Tylan, Elanco Animal Health, Greenfield, Ind.) with 15 g/ton monensin (Rumensin, Elanco Animal Health, Greenfield, Ind.).
# (§3) At 60 days of feed, 2-200 head pens were systematically allocated to 4 pens of 100 head. Two pens of 200 head were sorted at the chute into 4-100 head pens at time of terminal implant. Each 200 head pen contributed 50 head to each of the 4 pens that would be eventually allocated to treatment. This was accomplished by systematic allocation of 5 head at a time to each of the trial pens. If 200 head counts were not exactly 100 head/pen, the final allocations were that the number of animals per treatment group were similar. Once the 4-100 head pens (1 replicate) were sorted, the pens of cattle were weighed by pen, a 4% pencil shrink was applied, and pens were randomly assigned to 1 of 4 treatments: (1) Positive control (MT) 75 mg/head/day tylosin (Tylan,® Elanco Animal Health, Greenfield, Ind.) and 185 mg/head/day monensin (Rumensin,® Elanco Animal Health, Greenfield, Ind.); (2) Negative control (NO MT) fed without Rumensin® or Tylan®; (3) Decoquinate (DECO) fed 275 to 325 mg/head/day (Deccox,® Zoetis, Parsippany, N.J.); or (4) 3 g/head/day Yucca schidigera (YS) (Micro-Aid,® DPI Global, Porterville, Calif.). All cattle received an identification tag specific to the trial. Caretakers and processing staff were blinded to treatment.
# All treatment groups received the same base ration (Table 1) that was balanced to provide 14% crude protein DM, […] NEg (Table 1). Rations were prepared using a stationary batcher box (Feeding Systems, Inc., Columbus, Nebr.) and loaded onto mixer/delivery trucks with box-mounted scale (Rotomix Manufacturing, Dodge City, Kans.). Treatment rations were delivered twice daily (0800 and 1300) on separate trucks to prevent cross contamination of treatment rations.
# Data on cattle performance were derived from feedlot closeout reports after all pens of cattle were shipped to an abattoir. Daily dry matter intakes were recorded via bunk management personnel and entered into the computerized bunk management system. The average dry matter intake per pen over the 60-day period was retrieved from closeout data. Final body weight was calculated as (carcass weight/0.64). Average daily gain (ADG) was calculated on a pen basis using the equation ((Final body weight−Initial body weight)/days on feed). Feed conversion was calculated by dividing the […], then carcass adjusted G:F was calculated as the reciprocal of feed conversion.
# Continuous variables were analyzed using PROC Glimmix (SAS 9.4, SAS Inst. Inc., Cary, N.C.). Models contained treatment as a fixed effect, block as a random effect, and pen as the experimental unit. Least squares means were compared using the PDIFF function of SAS and the Tukey-Kramer adjustment for multiple comparisons. Statistical significance was determined at P<0.05 with tendencies at 0.06>P<0.10. Liver abscess scores, yield grade, and incidence of Eimeria spss. were converted to pen level frequency percentages prior to analysis. […]
# [2] = 60 Day feeding study, carcass characteristics; format: in vivo, cattle (crossbred steers); settings: 60 day study
# Text: as §1, §2, §3
# (§4) At 60±4 days of feed, all pens of cattle were shipped to the same abattoir. Hot carcass weight was collected from the plant via scale on carcass rail. Liver abscess scores were assessed by USDA trained professionals and data were collected by third party trained professionals using the liver scoring system previously described by Brown et al. (1975): 0=no abscesses, A−=2-4 abscesses under 1 inch in diameter, A=1-2 abscesses greater than 1 inch in diameter and A+=abscesses greater than 2 inches in diameter, ruptured abscess, or adhesions to body wall. Yield grade and quality grade data were collected from the abattoir by a third party.
# (§5) Continuous variables were analyzed using PROC Glimmix (SAS 9.4, SAS Inst. Inc., Cary, N.C.). Models contained treatment as a fixed effect, block as a random effect, and pen as the experimental unit. Least squares means were compared using the PDIFF function of SAS and the Tukey-Kramer adjustment for multiple comparisons. Statistical significance was determined at P<0.05 with tendencies at 0.06>P<0.10. Liver abscess scores, yield grade, and incidence of Eimeria spss. were converted to pen level frequency percentages prior to analysis.
# liver abscesses = test: 60 Day feeding study, liver abscess scores at slaughter; format: in vivo, cattle (crossbred steers); settings: 60 day study
# Text: as §1, §2, §3, §4, §5
structure (smiles),measurement,setting,value
"CCCCCCCCCCOc1cc2c(O)c(C(=O)OCC)cnc2cc1OCC [DECO, decoquinate]",Eimeria spp. incidence,Eimeria spp.,5.0%
same,"final body weight, rank among treatment groups",[1]; 60 day study,intermediate
same,growth performance compared with MT group,[1]; 60 day study,more similar to cattle in the MT group
same,DMI,"[1]; steers, average daily dry matter intake over 60-day period","12.1^a, b kg"
same,Carcass adjusted G:F,"[1]; steers, last 60 days on feed",0.120 kg/kg
same,Carcass adjusted ADG,"[1]; steers, last 60 days on feed, pen basis","1.47^a, b kg"
same,Carcass adjusted final BW,"[1]; steers, treatment in ration for last 60 days, final BW = carcass weight/0.64","681.0^a, b kg"
same,Dressing yield,[2],"63.9^a, b %"
same,"HCW, rank among treatment groups",[2],intermediate
same,HCW,[2]; hot carcass weight,"435.8^a, b kg"
same,Choice,[2]; quality grade,83.5%
same,Prime,[2]; quality grade,2.4%
same,Select,[2]; quality grade,11.9%
same,Standard,[2]; quality grade,2.1%
same,YG1,"[2]; yield grade 1, pen level frequency","7.0^a, c %"
same,YG2,[2]; yield grade 2,33.8%
same,YG3,[2]; yield grade 3,40.8%
same,YG4,[2]; yield grade 4,17.1%
same,YG5,[2]; yield grade 5,1.3%
same,Total liver abscess,liver abscesses,"31.4^a, b %"
same,incidence of liver abscesses compared with other groups,liver abscesses; pairwise comparisons of least squares means,"higher than cattle in the MT group, but lower than cattle in the NO MT group"
same,A liver abscesses,liver abscesses; A = 1-2 abscesses greater than 1 inch,4.1%
same,A+ liver abscesses,"liver abscesses; A+ = abscesses greater than 2 inches, ruptured abscess or adhesions","19.68^a, b %"
same,A− liver abscesses,liver abscesses; A− = 2-4 abscesses under 1 inch,7.6%
